The text below walks through data of US20110312974A1, “HETEROARYL ANTAGONISTS OF PROSTAGLANDIN D2 RECEPTORS” (AMIRA PHARMACEUTICALS, INC., priority 2008, published 2011).

Bounds are passed on as bounds.

In this assay the target is T1, human DP2 receptor (Homo sapiens, UniProt Q9Y5Y4).
T1 construct: expressed in transfected cells; membrane preparation
T1 sequence (Q9Y5Y4 1-395): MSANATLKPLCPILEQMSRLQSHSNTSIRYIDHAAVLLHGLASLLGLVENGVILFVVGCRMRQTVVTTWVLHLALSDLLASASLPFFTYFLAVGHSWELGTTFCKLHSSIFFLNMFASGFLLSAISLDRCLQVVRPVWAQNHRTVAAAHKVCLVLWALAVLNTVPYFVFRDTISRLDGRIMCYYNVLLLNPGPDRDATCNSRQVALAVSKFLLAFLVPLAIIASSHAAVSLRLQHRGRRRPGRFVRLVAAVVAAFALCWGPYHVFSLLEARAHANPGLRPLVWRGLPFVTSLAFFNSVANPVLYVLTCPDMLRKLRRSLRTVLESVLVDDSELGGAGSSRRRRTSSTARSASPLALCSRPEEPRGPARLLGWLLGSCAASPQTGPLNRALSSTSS
Description: DP2/CRTH2 radioligand binding assay using [3H]PGD2. Conditions: hDP2 (CRTH2) binding assay; membranes of HEK293 cells expressing recombinant human DP2, 1 nM [3H]PGD2. How it is done:
The ability of a compound to bind to the human DP2 receptor is assessed via a radioligand binding assay using [^3H]PGD2. HEK293 cells stably expressing recombinant human DP2 are resuspended in 10 mM Hepes, 7.4 containing 1 mM DTT, lysed and centrifuged at 75,000×g to pellet the membranes. The membranes are resuspended in 10 mM Hepes, 7.4 containing 1 mM DTT and 10% glycerol to approximately 5 mg protein/ml. Membranes (2-10 μg protein/well) are incubated in 96-well plates with 1 nM [^3H]PGD2 and test compound in Assay Buffer (50 mM Hepes, 10 mM MnCl2, 1 mM EDTA, plus or minus 0.2% human serum albumin, pH 7.4) for 60 minutes at room temperature. The reactions are terminated by rapid filtration through Whatman GF/C glass fibre filter plates. The filter plates were pre-soaked in 0.33% polythylenimine for 30 minutes at room temperature then washed in Wash Buffer (50 mM Hepes, 0.5 M NaCl pH 7.4) prior to harvesting. After harvesting, the filter plates are washed 3 times with 1 ml cold Wash Buffer then dried. Scintillant is then added to the plates and the radioactivity retained on the filters is determined on a Packard TopCount (Perkin Elmer). Specific binding is determined as total radioactive binding minus non-specific binding in the presence of 10 μM PGD2. IC50s were determined using GraphPad prism analysis of drug titration curves.

For the compound `CCN(Cc1cc(C(F)(F)F)ccc1-c1cccc(CC(=O)O)n1)C(=O)NCc1ccccc1` [Compound 1-39, {6-[2-(3-Benzyl-1-ethyl-ureidomethyl)-4-trifluoromethyl-phenyl]-pyridin-2-yl}-acetic acid], the IC50 (as a rule, the concentration that inhibits the measured activity by half) was over 1000 nM.

As for `CS(=O)(=O)NCc1ccc(-c2cncc(CC(=O)O)c2)c(CN(Cc2ccccc2)C(=O)C2CC2)c1` [Compound 1-10, {5-[2-[(N-Benzyl-N-cyclopropanecarbonyl-amino)-methyl]-4-(methanesulfonylamino-methyl)-phenyl]-pyridin-3-yl}-acetic acid], the IC50 is over 1000 nM.

On to `CCN(Cc1cc(F)ccc1-c1cncc(C(C)C(=O)O)c1)C(=O)OCc1ccccc1` (stereo not drawn) [Compound 1-11, 2-(5-{2-[(N-Benzyloxycarbonyl-N-ethyl-amino)-methyl]-4fluoro-phenyl}-pyridin-3-yl)-propionic acid], for which the IC50 was under 300 nM.

For `CCN(Cc1cc(C(F)(F)F)ccc1-c1cc(CC(=O)O)ccn1)C(=O)C1CC1` [Compound 1-35, (2-{2-[(N-Cyclopropanecarbonyl-N-ethyl-amino)-methyl]-4-trifluoromethyl-phenyl}-pyridin-4-yl)-acetic acid], the IC50 was over 1000 nM.

As to `CCN(Cc1cc(C(F)(F)F)ccc1-c1c(C)nn(CC(=O)O)c1C)C(=O)C1CC1` [Compound 3-2, (4-{2-[(N-Cyclopropanecarbonyl-N-ethyl-amino)-methyl]-4-trifluoromethyl-phenyl}-3,5-dimethyl-pyrazol-1-yl)-acetic acid], the IC50 is over 1000 nM.

As for `CCN(Cc1cc(C(F)(F)F)ccc1-c1cc(CC(=O)O)ccn1)C(=O)c1ccccc1` [Compound 1-37, (2-{2-[(N-Benzoyl-N-ethyl-amino)-methyl]-4-trifluoromethyl-phenyl}-pyridin-4-yl)-acetic acid], the 50% inhibitory concentration (IC50) is over 1000 nM.

Regarding `COCC(=O)N(Cc1cnc(C)cn1)Cc1cc(C(F)(F)F)ccc1-c1cncc(CC(=O)O)c1` [Compound 1-60, [5-(2-{[N-(2-Methoxy-acetyl)-N-(5-methyl-pyrazin-2-ylmethyl)-amino]-methyl}-4-trifluoromethyl-phenyl)-pyridin-3-yl]-acetic acid], the IC50 lay within 300 to 1000 nM.

For the compound `O=C(O)Cc1cncc(-c2ccc(C(F)(F)F)cc2CN(CCc2cccnc2)C(=O)C2CC2)c1` [Compound 1-65, [5-(2-{[N-Cyclopropanecarbonyl-N-(2-pyridin-3-yl-ethyl)-amino]-methyl}-4-trifluoromethyl-phenyl)-pyridin-3-yl]-acetic acid], the half-inhibitory concentration (IC50) lay in the range of 300 to 1000 nM.

Regarding `CCNCc1cc(C(F)(F)F)ccc1-c1cncc(CC(=O)O)c1` [Compound 1-78, [5-(2-Ethylaminomethyl-4-trifluoromethyl-phenyl)-pyridin-3-yl]-acetic acid], the IC50 is over 1000 nM.

In the case of `CCN(Cc1cc(C(F)(F)F)ccc1-c1cncc(CC(=O)O)c1)S(=O)(=O)c1cccc2c(N(C)C)cccc12` [Compound 1-77, [5-(2-{[N-(5-Dimethylamino-naphthalene-1-sulfonyl)-N-ethyl-amino]-methyl}-4-trifluoromethyl-phenyl)-pyridin-3-yl]-acetic acid], the IC50 was under 300 nM.

With `CC(=O)N(Cc1ccccn1)Cc1cc(C(F)(F)F)ccc1-c1cncc(CC(=O)O)c1` [Compound 1-53, (5-{2-[(N-Acetyl-N-pyridin-2-ylmethyl-amino)-methyl]-4-trifluoromethyl-phenyl}-pyridin-3-yl)-acetic acid], the IC50 was under 300 nM.

In the case of `CC(=O)N(Cc1ccc(C(F)(F)F)nc1)Cc1cc(C(F)(F)F)ccc1-c1cncc(CC(=O)O)c1` [Compound 1-62, [5-(2-{[N-Acetyl-N-(6-trifluoromethyl-pyridin-3-ylmethyl)-amino]-methyl}-4-trifluoromethyl-phenyl)-pyridin-3-yl]-acetic acid], the IC50 was under 300 nM.

Turning to `CCN(Cc1cc(C(F)(F)F)ccc1-c1cccc(CC(=O)O)n1)C(=O)C1CC1` [Compound 1-40, (6-{2-[(N-Cyclopropanecarbonyl-N-ethyl-amino)-methyl]-4-trifluoromethyl-phenyl}-pyridin-2-yl)-acetic acid], the IC50 is over 1000 nM.

With `CCN(Cc1cc(C(F)(F)F)ccc1-c1cnn(CC(=O)O)c1)C(=O)C1CC1` [Compound 3-1, (4-{2-[(N-Cyclopropanecarbonyl-N-ethyl-amino)-methyl]-4-trifluoromethyl-phenyl}-pyrazol-1-yl)-acetic acid], the IC50 is under 300 nM.

With `O=C(O)Cc1cncc(-c2ccc(C(F)(F)F)cc2CN(CCc2ccncc2)C(=O)C2CC2)c1` [Compound 1-66, [5-(2-{[N-Cyclopropanecarbonyl-N-(2-pyridin-4-yl-ethyl)-amino]-methyl}-4-trifluoromethyl-phenyl)-pyridin-3-yl]-acetic acid], the IC50 is over 1000 nM.

`O=C(O)Cc1cncc(-c2ccc(C(F)(F)F)cc2CN(C(=O)C2CC2)C2Cc3ccccc3C2)c1` [Compound 1-24, (5-{2-[(N-Cyclopropanecarbonyl-N-indan-2-yl-amino)-methyl]-4-trifluoromethyl-phenyl}-pyridin-3-yl)-acetic acid]: the IC50 was under 300 nM.

Regarding `CCN(Cc1cc(C(F)(F)F)ccc1-c1cc(CC(=O)O)cnc1-c1ccccc1)C(=O)C1CC1` [Compound 1-76, (5-{2-[(N-Cyclopropanecarbonyl-N-ethyl-amino)-methyl]-4-trifluoromethyl-phenyl}-6-phenyl-pyridin-3-yl)-acetic acid], the IC50 was over 1000 nM.

Take `CCN(Cc1cc(C(F)(F)F)ccc1-c1cc(CC(=O)O)ccn1)C(=O)NCc1ccccc1` [Compound 1-34, {2-[2-(3-Benzyl-1-ethyl-ureidomethyl)-4-trifluoromethyl-phenyl]-pyridin-4-yl}-acetic acid]: the IC50 is over 1000 nM.

As to `O=C(O)Cc1cncc(-c2ccc(C(F)(F)F)cc2CN(CCc2ccccn2)C(=O)C2CC2)c1` [Compound 1-64, [5-(2-{[N-Cyclopropanecarbonyl-N-(2-pyridin-2-yl-ethyl)-amino]-methyl}-4-trifluoromethyl-phenyl)-pyridin-3-yl]-acetic acid], the IC50 was over 1000 nM.

Turning to `CCN(Cc1cc(C(F)(F)F)ccc1-c1cc(CC(=O)O)cnc1OCc1csc(C)n1)C(=O)C1CC1` [Compound 1-70, [5-{2-[(N-Cyclopropanecarbonyl-N-ethyl-amino)-methyl]-4-trifluoromethyl-phenyl}-6-(2-methyl-thiazol-4-ylmethoxy)-pyridin-3-yl]-acetic acid], the IC50 was under 300 nM.

Regarding `CCN(Cc1cc(C(F)(F)F)ccc1-c1cc(CC(=O)O)cnc1OCc1ccccc1)C(=O)C1CC1` [Compound 1-68, (6-Benzyloxy-5-{2-[(N-cyclopropanecarbonyl-N-ethyl-amino)-methyl]-4-trifluoromethyl-phenyl}-pyridin-3-yl)-acetic acid], the IC50 is under 300 nM.

For `CCN(Cc1cc(F)ccc1-c1cncc(C(C)C(=O)O)c1)C(=O)C1CC1` (stereo not drawn) [Compound 1-13, 2-(5-[2-[(N-Cyclopropanecarbonyl-N-ethyl-amino)-methyl]-4-fluoro-phenyl]-pyridin-3-yl)-propionic acid], the 50% inhibitory concentration (IC50) is over 1000 nM.

For the compound `CCN(Cc1cc(C(F)(F)F)ccc1-c1cc(CC(=O)O)ccn1)C(=O)C1CCC1` [Compound 1-36, (2-{2-[(N-Cyclobutanecarbonyl-N-ethyl-amino)-methyl]-4-trifluoromethyl-phenyl}-pyridin-4-yl)-acetic acid], the IC50 is over 1000 nM.

In the case of `CCN(Cc1cc(C(F)(F)F)ccc1-c1cccc(CC(=O)O)n1)C(=O)OC(C)(C)C` [Compound 1-38, (6-{2-[(N-tert-Butoxycarbonyl-N-ethyl-amino)-methyl]-4-trifluoromethyl-phenyl}-pyridin-2-yl)-acetic acid], the IC50 is over 1000 nM.

As to `O=C(O)Cc1cncc(-c2ccc(C(F)(F)F)cc2CN(CCc2ccccc2)C(=O)C2CC2)c1` [Compound 1-26, (5-{2-[(N-Cyclopropanecarbonyl-N-phenethyl-amino)-methyl]-4-trifluoromethyl-phenyl}-pyridin-3-yl)-acetic acid], the IC50 is under 300 nM.

Consider `O=C(O)Cc1cncc(-c2ccc(C(F)(F)F)cc2CN(Cc2ccc(C(F)(F)F)nc2)C(=O)C2CC2)c1` [Compound 1-59, [5-(2-{[N-Cyclopropanecarbonyl-N-(6-trifluoromethyl-pyridin-3-ylmethyl)-amino]-methyl}-4-trifluoromethyl-phenyl)-pyridin-3-yl]-acetic acid], for which the IC50 was under 300 nM.

With `O=C(O)Cc1cncc(-c2ccc(C(=O)N3CCCC3)cc2CN(Cc2ccccc2)C(=O)C2CC2)c1` [Compound 1-8, {5-[2-[(N-Benzyl-N-cyclopropanecarbonyl-amino)-methyl]-4-(pyrrolidine-1-carbonyl)-phenyl]-pyridin-3-yl}-acetic acid], the IC50 lay in the range of 300 to 1000 nM.
